# From publication PMC11394700, “Characterization of Stealth Liposome-Based Nanoparticles Encapsulating the ACAT1/SOAT1 Inhibitor F26: Efficacy and Toxicity Studies In Vitro and in Wild-Type Mice” (International Journal of Molecular Sciences, 2024)
# Values joined by “and” are separate entries in the source; they are usually repeats but may differ in a detail not shown here. Identical values can stand only once. Like-named read-outs stand apart in the source and are kept apart here.
# What was measured:
# ACAT1 = biological target: T1, ACAT1 (Mus musculus, UniProt Q61263); assay: ACAT activity by [3H] oleate pulse assay in MEFs; format: cell-based
# T1 construct: MEFs predominantly express ACAT1, not ACAT2; endogenous in cells; host or cells: mouse embryonic fibroblasts (MEFs)
# T1 sequence (Q61263 1-540): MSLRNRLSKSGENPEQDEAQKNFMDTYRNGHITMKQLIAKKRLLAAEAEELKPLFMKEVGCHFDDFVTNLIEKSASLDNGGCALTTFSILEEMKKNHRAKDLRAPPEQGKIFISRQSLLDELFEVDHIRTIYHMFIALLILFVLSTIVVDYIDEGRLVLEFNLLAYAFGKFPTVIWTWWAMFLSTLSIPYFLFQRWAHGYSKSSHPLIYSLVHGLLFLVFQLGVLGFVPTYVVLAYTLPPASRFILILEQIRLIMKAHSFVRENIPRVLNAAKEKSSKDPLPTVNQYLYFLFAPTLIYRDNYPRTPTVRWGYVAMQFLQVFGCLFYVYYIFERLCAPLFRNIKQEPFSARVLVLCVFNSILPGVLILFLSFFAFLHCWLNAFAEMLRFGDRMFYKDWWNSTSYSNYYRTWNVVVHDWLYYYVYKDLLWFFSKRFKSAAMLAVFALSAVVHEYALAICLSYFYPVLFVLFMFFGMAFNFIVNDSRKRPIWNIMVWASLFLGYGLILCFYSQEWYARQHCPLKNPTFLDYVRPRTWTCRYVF
# Experimental: The [^3H] oleate pulse assay was performed as described [76, 77]. […] For the washout assay, cells were washed and incubated with a conditioned drug-free medium for a given amount of time. After the incubation, cells were pulsed with 10 µL of 10 mM [^3H] oleate/BSA (containing 4 µCi) for 2 h in a 37 °C water bath with 5% CO2. At the end of the pulse period, cells were placed on ice, washed three times with cold PBS, and lysed with 0.2 M NaOH. Lysates were aliquoted first for protein measurement and the remaining extract was neutralized to pH 7.0 by adding 3 M HCl and 1 M KH2PO4 at pH 7. Lipids were then extracted with chloroform:methanol (2:1) and water. Samples were vortex-mixed and centrifuged at 500 rpm for 10 min. The top phase was removed, and the bottom phase was blow-dried by nitrogen gas. Dried samples were dissolved in ethyl acetate and spotted on a thin-layer chromatography (TLC) plate (Miles Scientific Silica gel HL, Catalog No. P46911). The solvent system used was petroleum ether:ethyl ether:acetic acid (90:10:1). The cholesteryl ester band with an Rf value at 0.9 was visualized by iodine staining, scraped from the plate, and measured with a scintillation counter.
# MEFs = assay: XTT cytotoxicity assay in MEFs; format: cell-based, mouse; details: for Effect on cell viability (XTT): MEFs, concentrations below 50 µM, 24 h
# Experimental: (§1) An XTT cell proliferation assay kit (measures mitochondrial redox activity in metabolically active cells) was purchased from ATCC (Catalog No. 30-1011K, Manassas, VA, USA). Cell toxicity assessment was performed according to the manufacturer’s protocol. MEFs were seeded in a 96-well plate, 2500 cells per well, and cultured in full growth medium for 24 h. […] After the treatment, XTT reagent was added to each well, and the plates were incubated at 37 °C for 4 h. Following the incubation, absorbance was measured by using a BioTek Synergy Neo2 Hybrid Multimode Reader (BioTek, Winooski, VT, USA).
# [1] = XTT cytotoxicity assay in MEFs; format: cell-based, mouse; details: mouse; MEFs, 150 µM, 24 h; read-out: Cell viability (XTT)
# Experimental: as §1
# [2] = Plasma and brain pharmacokinetics after single IV dose (LC-MS/MS); format: in vivo, mouse; details: WT mice
# Experimental: After intravenous administration of F26, mice were perfused with PBS at scheduled time points. Plasma and brain tissue were collected, flash-frozen in liquid nitrogen, and stored at −80 °C until analysis. […] Calibrator and quality control (QC) samples were prepared in the appropriate C57BL/6 mouse matrix: pooled plasma (anticoagulant: K3-EDTA, Innovative Research) and brain homogenate. The brain tissues were homogenized at 0.1 g/mL in deionized water using stainless-steel beads and a Next Advance Bullet Blender. Samples were cleaned up and analytes were extracted using protein precipitation followed by nitrogen dry down and reconstitution. […] Samples were vortex-mixed for 5 min then centrifuged for 10 min at 21,130× g and a total of 200 µL of clear supernatant was transferred to new tubes and dried under nitrogen in a water bath at 45 °C. The dried residues were reconstituted in 80:20 methanol:water (plasma: 400 µL, brain: 200 µL), vortex-mixed for 15 s and centrifuged at 21,130× g for 5 min. Finally, 100 µL of supernatant was transferred to amber autosampler vials, and 2 µL was injected into the LC-MS/MS system. For the quantitative analysis, each sample was prepared in triplicate and each replicate was injected onto the LC-MS/MS system three times. Liquid chromatography was performed on a Thermo Scientific Vanquish Flex UHPLC system using buffers A = 0.1% formic acid in water and B = 0.1% formic acid in methanol. A Thermo Scientific Accucore C18 50 × 2.1 mm 2.6 µm column fitted with a 10 × 2.1 mm 2.6 µm C18 guard cartridge maintained at 40 °C was used. […] A Thermo Scientific TSQ Quantis triple quadrupole mass spectrometer was operated in positive ion mode with a collision pressure of 1.5 mTorr for quantification. […] The heated electrospray ionization (H-ESI) source was operated with a spray voltage of 3500 V, vaporizer temperature 400 °C, ion transfer tube temperature 300 °C, sheath gas 23, aux gas 12 and ion sweep gas 0.5 (gases are arbitrary units). The quantitative range for F26 was 0.5–500 ng/mL for plasma samples and 0.3–200 ng/mL for brain samples. QC samples were prepared at 1.5, 150, and 400 ng/mL for plasma and at 0.9, 80, and 150 ng/mL for brain.
# [3] = test system: rat liver microsomal ACAT; set-up: method as in earlier work; details: F26 = compound 3 in ref; cited from earlier work
# human ACAT2 = details: cited from earlier work
# [4] = test system: primary mouse neuronal cells; details: concentrations up to 10 µM; cited from earlier work
# [5] = WT mice, individual samples, cited from earlier work
# [6] = 4 h after single IV NP F26 51 mg/kg, individual samples, 51 mg/kg
# [7] = 12 h after single IV NP F26 51 mg/kg, individual samples, 51 mg/kg
# [8] = 24 h after single IV NP F26 51 mg/kg, individual samples, 51 mg/kg
# [9] = 48 h after single IV NP F26 51 mg/kg, individual samples, 51 mg/kg
# [10] = 4 h after single IV NP F12511 46 mg/kg
# [11] = 12 h after single IV NP F12511 46 mg/kg
# [12] = 24 h after single IV NP F12511 46 mg/kg
compound,measurement,setting,value
CCCCCCCCCCCCS(=O)(=O)[C@](F)(C(=O)Nc1cc(C)c(O)c(C)c1C)c1ccccc1 [F26],IC50,"ACAT1; [3H] oleate pulse assay, MEFs (predominantly ACAT1), read-out: IC50 against ACAT in MEFs",3 nM
same,Potency as ACAT1 inhibitor compared to F12511 (fold),ACAT1; from IC50 values in MEFs,close to seven-fold
same,Concentration required to induce cell toxicity relative to that for ACAT1 inhibition,MEFs; 50 µM or higher vs IC50 in MEFs,over 1000 times
same,Effect on cell viability (XTT),MEFs,neither F12511 nor F26 affected cell viability
same,"viability at 24 h, 150 µM",[1],81%
same,Brain Concentration,[2]; [6],1148 ng/g
same,Brain-to-Plasma Ratio,[2]; [6],0.069
same,Plasma Concentration,[2]; [6],"16,540 ng/mL"
same,Brain Concentration,[2]; [7],529 ng/g
same,Brain-to-Plasma Ratio,[2]; [7],0.125
same,Plasma Concentration,[2]; [7],4243 ng/mL
same,Brain Concentration,[2]; [8],347 ng/g
same,Brain-to-Plasma Ratio,[2]; [8],0.283
same,Plasma Concentration,[2]; [8],3218 ng/mL and 1226 ng/mL
same,Brain Concentration,[2]; [9],86 ng/g
same,Brain-to-Plasma Ratio,[2]; [9],1.377
same,Plasma Concentration,[2]; [9],62 ng/mL
same,concentration at 4 h,"[2]; C57BL/6, mouse, brain, iv, 51 mg/kg, 4 h after single IV NP F26 51 mg/kg, individual samples, read-out: Brain Concentration",1120 ng/g
same,Kp at 4 h,"[2]; C57BL/6, mouse, brain, iv, 51 mg/kg, 4 h after single IV NP F26 51 mg/kg, individual samples, read-out: Brain-to-Plasma Ratio",0.061
same,concentration at 12 h,"[2]; C57BL/6, mouse, brain, iv, 51 mg/kg, 12 h after single IV NP F26 51 mg/kg, individual samples, read-out: Brain Concentration",671 ng/g
same,Kp at 12 h,"[2]; C57BL/6, mouse, brain, iv, 51 mg/kg, 12 h after single IV NP F26 51 mg/kg, individual samples, read-out: Brain-to-Plasma Ratio",0.147
same,concentration at 24 h,"[2]; C57BL/6, mouse, brain, iv, 51 mg/kg, 24 h after single IV NP F26 51 mg/kg, individual samples",571 ng/g
same,Kp at 24 h,"[2]; C57BL/6, mouse, brain, iv, 51 mg/kg, 24 h after single IV NP F26 51 mg/kg, individual samples, read-out: Brain-to-Plasma Ratio",0.178
same,concentration at 48 h,"[2]; C57BL/6, mouse, brain, iv, 51 mg/kg, 48 h after single IV NP F26 51 mg/kg, individual samples, read-out: Brain Concentration",59 ng/g
same,Kp at 48 h,"[2]; C57BL/6, mouse, brain, iv, 51 mg/kg, 48 h after single IV NP F26 51 mg/kg, individual samples, read-out: Brain-to-Plasma Ratio",1.6
same,Cmax,"[2]; C57BL/6, mouse, brain, single IV NP F26 51 mg/kg, read-out: Cmax in brain",1130 ng/g
same,half-life,"[2]; C57BL/6, mouse, brain, single IV NP F26 51 mg/kg, read-out: T1/2 in brain (converted)",10.5 h
same,Tmax,"[2]; C57BL/6, mouse, brain, single IV NP F26 51 mg/kg, read-out: Tmax in brain",4 h
same,concentration at 4 h,"[2]; C57BL/6, mouse, plasma, iv, 51 mg/kg, 4 h after single IV NP F26 51 mg/kg, individual samples, read-out: Plasma Concentration",18500 ng/mL
same,concentration at 12 h,"[2]; C57BL/6, mouse, plasma, iv, 51 mg/kg, 12 h after single IV NP F26 51 mg/kg, individual samples, read-out: Plasma Concentration",4570 ng/mL
same,concentration at 48 h,"[2]; C57BL/6, mouse, plasma, iv, 51 mg/kg, 48 h after single IV NP F26 51 mg/kg, individual samples, read-out: Plasma Concentration",37 ng/mL
same,Tmax,"[2]; C57BL/6, mouse, plasma, single IV NP F26 51 mg/kg, non-compartmental, n = 2, read-out: Tmax in plasma",4 h
same,AUC(0-t),"[2]; C57BL/6, mouse, plasma, single IV NP F26 51 mg/kg, read-out: AUClast in plasma",229 µg·h/mL
same,Cmax,"[2]; C57BL/6, mouse, plasma, single IV NP F26 51 mg/kg, read-out: Cmax in plasma",17500 ng/mL
same,half-life,"[2]; C57BL/6, mouse, plasma, single IV NP F26 51 mg/kg, read-out: T1/2 in plasma (converted)",4.75 h
same,AUClast in brain,[2]; single IV NP F26 51 mg/kg,"23,398.14 ng.h/g"
same,Potency for inhibiting rat liver microsomal ACAT,[3],more potent than F12511
"CCCCCCCCCCCCS[C@H](C(=O)Nc1cc(C)c(O)c(C)c1C)c1ccccc1 [F12511, eflucimibe]",IC50,human ACAT2,110 nM
same,Toxicity in primary mouse neuronal cells,[4],no detectable toxicity
same,Effect on cell viability (XTT),MEFs,neither F12511 nor F26 affected cell viability
same,Brain Concentration,[5]; [10],56 ng/g and 83 ng/g and 98 ng/g and 95 ng/g
same,Plasma Concentration,[5]; [10],"11,185 ng/mL and 13,184 ng/mL and 12,883 ng/mL and 31,224 ng/mL"
same,Brain Concentration,[5]; [11],25 ng/g and 26 ng/g
same,Plasma Concentration,[5]; [11],345 ng/mL and 487 ng/mL
same,Brain Concentration,[5]; [12],7 ng/g and 9 ng/g
same,Plasma Concentration,[5]; [12],101 ng/mL and 21 ng/mL
